# From patent US6962939B1, “Condensed indoline derivatives and their use as 5HT, in particular 5HT2C, receptor ligands” (Vernalis Research Limited, priority 1999, dated 2005)
# Where a name gives a salt, the structure may show the parent alone.
# Assays:
# [1] = target: T1, h5-HT2C receptor (Homo sapiens, UniProt P28335); experiment: Functional activity, FLIPR calcium assay, CHO cells expressing h5-HT2C; type: cell-based; settings: for Emax: CHO, read-out: h5-HT2C Relative Efficacy (%); for EC50: FLIPR, CHO cells, Fluo 3-AM
# T1 construct: expressed in transfected cells; host or cells: CHO cells
# T1 sequence (P28335 33-458): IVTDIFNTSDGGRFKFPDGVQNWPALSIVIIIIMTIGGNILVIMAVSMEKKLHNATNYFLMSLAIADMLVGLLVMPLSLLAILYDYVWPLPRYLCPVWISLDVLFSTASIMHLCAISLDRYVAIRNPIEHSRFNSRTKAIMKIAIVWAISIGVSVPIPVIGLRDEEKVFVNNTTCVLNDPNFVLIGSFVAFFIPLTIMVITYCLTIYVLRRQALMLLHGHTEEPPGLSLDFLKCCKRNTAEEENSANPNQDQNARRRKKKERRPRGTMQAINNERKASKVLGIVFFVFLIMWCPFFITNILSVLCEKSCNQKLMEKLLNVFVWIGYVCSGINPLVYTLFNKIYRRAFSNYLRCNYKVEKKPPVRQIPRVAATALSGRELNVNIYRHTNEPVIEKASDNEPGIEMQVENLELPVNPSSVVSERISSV
# Description: (§1) The functional activity of compounds of formula (I) was assayed using a Fluorimetric Imaging Plate reader (FLIPR) in the following manner.
# (§2) CHO cells expressing either the h5-HT2C or h5-HT2A receptors were counted and plated into standard 96 well microtitre plates before the day of testing to give a confluent monolayer. The following day the cells were dye loaded with the calcium sensitive dye Fluo 3-AM by incubation with serum free culture maintenance media containing plumnic acid and Fluo 3-AM dissolved in DMSO at 37° C. in a CO2 incubator at 95% humidity for approximately 90 minutes. Unincorporated dye was removed by washing with Hanks balanced salt solution containing 20 mM HEPES and 2.5 mM probenecid (the assay buffer) using an automated cell washer to leave a total volume of 100 μl/well.
# (§3) The drug (dissolved in 50 μl of assay buffer) was added at a rate of 70 μL/sec to each well of the FLIPR 96 well plate during fluorescence measurements. The measurements are taken at 1 sec intervals and the maximum fluorescent signal was measured (approx 10–15 secs after drug addition) and compared with the response produced by 10 μM 5-HT (defined as 100%) to which it is expressed as a percentage response (relative efficacy). Dose response curves were constructed using Graphpad Prism (Graph Software Inc.).
# [2] = target: T2, h5-HT2A receptor (Homo sapiens, UniProt P28223); experiment: Functional activity, FLIPR calcium assay, CHO cells expressing h5-HT2A; type: cell-based; settings: for Emax: CHO, read-out: h5-HT2A Relative Efficacy (%); for EC50: FLIPR, CHO cells, Fluo 3-AM
# T2 construct: expressed in transfected cells; host or cells: CHO cells
# Description: as §1, §2, §3
# [3] = target: T3, 5-HT2A receptor (Homo sapiens, UniProt P28223); experiment: Binding to 5-HT2A receptor, [125I]-DOI, CHO cell line; settings: read-out: Ki (2A)
# T3 construct: expressed in transfected cells; host or cells: CHO cell line
# Description: (§4) The binding of compounds of formula (1) to serotonin receptors was determined in vitro by standard methods. The preparations were investigated in accordance with the assays given hereinafter.
# Method (c): For the binding to the 5-HT2A receptor the 5-HT2A receptors were radiolabeled with [^125I]-DOI. The affinity of the compounds for 5-HT2A receptors in a CHO cell line was determined according to the procedure of D. J. McKenna and S. J. Peroutka, J. Neurosci., 1989, 9/10, 3482–90.
# [4] = target: T4, human 5-HT2B receptors (Homo sapiens, UniProt P41595); experiment: Binding to 5-HT2B receptor, [3H]-5-HT, CHO cell line; settings: read-out: Ki (2B)
# T4 construct: expressed in transfected cells; host or cells: CHO cell line
# Description: as §4
# Method (b): For the binding to the 5-HT2B receptor the 5-HT2B receptors were radiolabeled with [3H]-5-HT. The affinity of the compounds for human 5-HT2B receptors in a CHO cell line was determined according to the procedure of K. Schmuck, C. Ullmer, P. Engels and H. Lubbert, FEBS Lett., 1994, 342, 85–90.
# [5] = target: T5, 5-HT2C receptor (Homo sapiens, UniProt P28335); experiment: Binding to 5-HT2C receptor, [3H]-5-HT, CHO cell line; settings: read-out: Ki (2C)
# T5 construct: expressed in transfected cells; host or cells: CHO cell line
# T5 sequence (P28335 33-458): T1 sequence (P28335 33-458)
# Description: as §4
# Method (a): For the binding to the 5-HT2C receptor the 5-HT2C receptors were radiolabeled with [^3H]-5-HT. The affinity of the compounds for 5-HT2C receptors in a CHO cell line was determined according to the procedure of D. Hoyer, G. Engel and H. O. Kalknan, European J. Pharmacol., 1985, 118, 13–23.
# [6] = prolonged period (greater than 6 months); cited from earlier work
# [7] = system: rats; settings: cited from earlier work
# [8] = system: obese male and female subjects; settings: subchronic treatment for a 14 day period; cited from earlier work
# [9] = system: female volunteers; settings: single injection; cited from earlier work
# [10] = maximum fluorescent signal relative to 10 μM 5-HT (defined as 100%)
# T2 sequence (P28223 whole entry): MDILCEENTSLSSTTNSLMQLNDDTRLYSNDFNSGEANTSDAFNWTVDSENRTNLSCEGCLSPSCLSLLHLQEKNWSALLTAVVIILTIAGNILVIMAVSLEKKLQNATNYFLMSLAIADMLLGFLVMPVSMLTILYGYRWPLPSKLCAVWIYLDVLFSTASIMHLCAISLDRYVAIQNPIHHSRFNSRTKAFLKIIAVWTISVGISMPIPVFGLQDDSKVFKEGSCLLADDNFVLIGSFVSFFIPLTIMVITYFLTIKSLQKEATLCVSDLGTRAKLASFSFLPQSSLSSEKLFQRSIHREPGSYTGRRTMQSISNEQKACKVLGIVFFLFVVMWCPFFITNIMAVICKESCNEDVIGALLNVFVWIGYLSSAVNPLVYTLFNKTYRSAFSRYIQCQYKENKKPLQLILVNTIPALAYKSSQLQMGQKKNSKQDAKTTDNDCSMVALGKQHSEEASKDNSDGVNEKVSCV
# T3 sequence (P28223 whole entry): as above
# T4 sequence (P41595 whole entry): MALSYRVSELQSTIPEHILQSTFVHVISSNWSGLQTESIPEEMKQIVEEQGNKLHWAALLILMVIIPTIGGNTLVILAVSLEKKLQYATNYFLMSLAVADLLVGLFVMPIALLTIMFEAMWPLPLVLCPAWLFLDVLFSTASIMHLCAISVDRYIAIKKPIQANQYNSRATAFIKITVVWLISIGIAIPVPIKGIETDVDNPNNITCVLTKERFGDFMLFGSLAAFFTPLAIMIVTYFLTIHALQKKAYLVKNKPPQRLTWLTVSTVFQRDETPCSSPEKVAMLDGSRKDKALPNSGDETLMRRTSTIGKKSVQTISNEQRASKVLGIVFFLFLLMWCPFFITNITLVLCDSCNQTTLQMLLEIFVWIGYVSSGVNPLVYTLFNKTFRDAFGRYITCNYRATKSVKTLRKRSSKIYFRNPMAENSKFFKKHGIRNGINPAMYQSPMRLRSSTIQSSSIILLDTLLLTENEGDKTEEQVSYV
compound,measurement,setting,value
"C[C@H](N)CN1CCc2ccc3c(c21)CCCC3 (as salt: fumarate) [Compound 7, (S)-1-(2,3,6,7,8,9-Hexabydro-1H-benz[g]indol-1-yl)]-2-propylamine, fumarate]",melting point,,178 to 182 °C
"C[C@H](N)CN1CCc2ccc3c(c21)CCCC3 [Compound 7, (S)-1-(2,3,6,7,8,9-Hexabydro-1H-benz[g]indol-1-yl)]-2-propylamine, fumarate]",Emax,[1]; [10],68%
same,EC50,[1],440 nM
same,Emax,[2]; [10],14%
same,EC50,[2],1830 nM
"C[C@H](N)CN1CCc2ccc3ccccc3c21 [Compound 1, (S)-1-(Benz[g]indolin-1-yl)-2-propylamine hemi-fumarate]",Ki,[3],173 nM
same,Ki,[4],39 nM
same,Emax,[1]; [10],79%
same,EC50,[1],158 nM
same,Ki,[5],107 nM
same,Emax,[2]; [10],51%
same,EC50,[2],1370 nM
"C[C@H](N)CN1CCc2ccc3c(c21)CCO3 [Compound 3, (S)-1-(2,3,7,8-Tetrahydrofuro[2,3-g]indol-1-yl)-2-propylamine fumarate]",Emax,[1]; [10],94%
same,EC50,[1],6 nM
same,Emax,[2]; [10],81%
same,EC50,[2],138 nM
"CCC1CN(CC(C)N)c2c1ccc1c2CCO1 (single isomer, unassigned) [Compound 10, [2S,3′(S or R)]-1-(3-Ethyl-2,3,7,8-tetrahydrofuro[2,3-g]indol-1-yl)-2-propylamine fumarate]",EC50,[1],51 nM
same,h5-HT2C Relative Efficacy (%),[1]; [10],67%
same,EC50,[2],403 nM
same,h5-HT2A Relative Efficacy (%),[2]; [10],15%
CCNC(C)Cc1cccc(C(F)(F)F)c1 (stereo not drawn) [fenfluramine],food intake and body weight,[6],decrease food intake and body weight
"C[C@H](N)CN1CCc2ccc3c(c21)CCO3 (as salt: fumarate) [Compound 3, (S)-1-(2,3,7,8-Tetrahydrofuro[2,3-g]indol-1-yl)-2-propylamine fumarate]",melting point,,215.5 to 217 °C (dec.)
CCN[C@@H](C)Cc1cccc(C(F)(F)F)c1 [dexfenfluramine],food intake and body weight,[6],decrease food intake and body weight
"C[C@H](N)CN1CCc2ccc3c(c21)CCCO3 [Compound 4, (S)-1-(2,3,7,8-Tetrahydro-9H-pyrano[2,3-g]indol-1-yl)-2-propylamine fumarate]",Emax,[1]; [10],89%
same,EC50,[1],47 nM
same,Emax,[2]; [10],66%
same,EC50,[2],505 nM
"C[C@H](N)CN1CCc2ccc3c(c21)CCC3 [Compound 8, (S)-1-[1-(1,2,3,6,7,8-Hexabydrocyclopent[g]indolyl)]-2-propylamine fumarate]",Emax,[1]; [10],69%
same,EC50,[1],217 nM
same,Emax,[2]; [10],0%
same,EC50,[2],≥ 10000 nM
"C[C@H](N)CN1CCc2ccc3c(c21)CCS3 [Compound 5, (S)-1-(2,3,7,8-Tetrahydrothieno[2,3-g]indol-1-yl)-2-propylamine fumarate]",Emax,[1]; [10],86%
same,EC50,[1],0.4 nM
same,Emax,[2]; [10],77%
same,EC50,[2],48 nM
"C[C@H](N)CN1CCc2ccc3c(c21)OCCO3 [Compound 6, (S)-1-(2,3,7,8-Tetrahydro-9H-1,4-dioxino[2,3-g]indol-9-yl)2-propylamine fumarate]",Ki,[3],223 nM
same,Ki,[4],218 nM
same,Emax,[1]; [10],90%
same,EC50,[1],47 nM
same,Ki,[5],70 nM
same,Emax,[2]; [10],71%
same,EC50,[2],312 nM
"C[C@H](N)CN1CCc2ccc3c(c21)CCC3 (as salt: fumarate) [Compound 8, (S)-1-[1-(1,2,3,6,7,8-Hexabydrocyclopent[g]indolyl)]-2-propylamine fumarate]",melting point,,182 °C (dec.)
"Clc1cccc(N2CCNCC2)c1 [mCPP, m-chlorophenylpiperazine]",appearance of the behavioural satiety sequence,"[7]; rat, in vivo",accelerate the appearance of the behavioural satiety sequence
same,food intake in rats,[7]; rats,reduce food intake
same,appetite and body weight of obese subjects,[8],decreased the appetite and body weight
same,food intake in female volunteers,[9],decreased food intake
"C[C@H](N)CN1CCc2ccc3c(c21)CCCO3 (as salt: fumarate) [Compound 4, (S)-1-(2,3,7,8-Tetrahydro-9H-pyrano[2,3-g]indol-1-yl)-2-propylamine fumarate]",melting point,,168 to 169 °C
"C[C@@H](N)CN1CCc2ccc3ccccc3c21 [Compound 2, (R)-1-(Benz[g]indolin-1-yl)-2-propylamine hemi-fumarate]",Emax,[1]; [10],44%
same,EC50,[1],1720 nM
same,EC50,[2],> 10000 nM
"CCC1CN(CC(C)N)c2c1ccc1c2CCO1 (single isomer, unassigned) [Compound 9, [2S3′(R or S)]-1-(3-Ethyl-2,3,7,8-tetrahydrofuro[2,3-g]indol-1-yl)-2-propylamine fumarate]",Emax,[1]; [10],74%
same,EC50,[1],50 nM
same,Emax,[2]; [10],22%
same,EC50,[2],1140 nM
"C[C@H](N)CN1CCc2ccc3c(c21)OCCO3 (as salt: fumarate) [Compound 6, (S)-1-(2,3,7,8-Tetrahydro-9H-1,4-dioxino[2,3-g]indol-9-yl)2-propylamine fumarate]",melting point,,173 to 174 °C (dec.)
"C[C@H](N)CN1CCc2ccc3c(c21)CCS3 (as salt: fumarate) [Compound 5, (S)-1-(2,3,7,8-Tetrahydrothieno[2,3-g]indol-1-yl)-2-propylamine fumarate]",melting point,,188 to 189.5 °C (dec.)
